Columns and labels:
CRAMP = assay: Expression of antimicrobial peptide (CRAMP) in the skin of the atopic dermatitis animal model (immunohistochemistry); format: in vivo, mouse; conditions: animal model with atopic dermatitis, coated for four days; FIG. 4
From the text: An animal model with atopic dermatitis was constructed by coating the abdomens of 6-8 week aged nude mice with 5% oxazolone solution one time for percutaneous sensitization; after week, with 0.1% oxazolone solution every other day, six times, and 1% oxazolone solution every other day, four times. It has been reported that in the case of the animal model with atopic dermatitis using oxazolone, antimicrobial peptides were reduced in the skin (Man M-Q, Hatano Y, Lee S H, et al. Characterization of a hepten-induced, murine model with multiple features of atopic dermatitis: structural, immunologic, and biochemical changes following single versus multiple oxazolone challenges. J Invest Dermatol (2008) 128, 79-86). The skin of the animal model with atopic dermatitis constructed as above was coated with vehicle (PEG:EtOH=7:3) and Compound 1a of Example 1 diluted with the vehicle at a concentration of 0.1% once in the morning and in the afternoon for a total of four days. On the last day, thickness of the skin was measured. […]
The new compound synthesized according to Example 1 was coated for four days, and then skin tissue biopsy was conducted to form a paraffin block. […] After the reaction was completed, expression of CRAMP in the corneum of the skin was measured through a microscope. […]

LL-37 = assay: Promotion of secretion/expression of LL-37 in cultured human keratinocytes (RT-PCR, real-time PCR); format: cell-based; conditions: cultured human keratinocyte (HaCaT), 24 hours, with 1.7 mM calcium chloride; FIG. 1
Procedure: (§1) A medium containing 1% penicillin/streptomycin but not serum was used to culture human keratinocyte (HaCaT). The human keratinocyte was cultured in a 5% CO2 incubator at 37° C. The cells were seeded in each well of a 6-well plate at 3×10^5 cells/well, and then cultured for 48 hours. 1.7 mM calcium chloride and the new material synthesized from Example 1 were added thereto, and the cells were allowed to culture for 24 hours.
(§2) For assessment, at least one untreated control and at least one positive control were used together. 2.5 ng/mL of lipopolysaccharides (LPS), which is known to promote expression of hBD-2 and LL-37, was used as the positive control, and was allowed to react. After the reaction was completed, a supernatant was collected, and then the cells were washed with phosphate buffer saline (PBS) and collected by using a trypsin-EDTA solution, and stored in a tube. 1 ml of a triazole reagent was added to extract mRNA. […] The diluted RNA was analyzed at a wavelength between 260 nm and 280 nm, and quantitated. […]
(§3) 12.5 μl of PCR premix, 2 μl of primer sense (10 uM), 2 μl of primer antisense (10 uM), 1.5 μl of cDNA, and 7 μl of distilled water were inputted, and then PCR was carried out. […] The sample was migrated and then read out under UV in a dark room, and digitally photographed. Photos of the gel were analyzed by image processing software which quantifies the band intensities. […]

nude mice [1] = assay: Efficacy assessment on oxazolone animal model with atopic dermatitis (skin thickness); format: in vivo, mouse
From the text: An animal model with atopic dermatitis was constructed by coating the abdomens of 6-8 week aged nude mice with 5% oxazolone solution one time for percutaneous sensitization; after week, with 0.1% oxazolone solution every other day, six times, and 1% oxazolone solution every other day, four times. It has been reported that in the case of the animal model with atopic dermatitis using oxazolone, antimicrobial peptides were reduced in the skin (Man M-Q, Hatano Y, Lee S H, et al. Characterization of a hepten-induced, murine model with multiple features of atopic dermatitis: structural, immunologic, and biochemical changes following single versus multiple oxazolone challenges. J Invest Dermatol (2008) 128, 79-86). The skin of the animal model with atopic dermatitis constructed as above was coated with vehicle (PEG:EtOH=7:3) and Compound 1a of Example 1 diluted with the vehicle at a concentration of 0.1% once in the morning and in the afternoon for a total of four days. On the last day, thickness of the skin was measured. Corticosteroid based drug, Dexamethasone, which is an effective anti-inflammatory agent, was used as a positive control.

[2] = test system: human β-defensin-2 (hBD-2); assay: Promotion of secretion/expression of β-defensin-2 in cultured human keratinocytes (RT-PCR, real-time PCR); format: cell-based; conditions: cultured human keratinocyte (HaCaT), 24 hours, with 1.7 mM calcium chloride; FIG. 1
Procedure: as §1, §2, §3

nude mice [3] = assay: Recovery of skin barrier damage (TEWL) in nude mice with acute skin barrier disruption; format: in vivo, mouse; conditions: D-Squame acute barrier damage, topical coating, TEWL at 0 h, 3 h, 6 h, 24 h, FIG. 2
Procedure: Skin barriers of nude mice were acutely damaged, and then effects of the new material represented in Example on recovery of acute skin barriers were assessed. D-Squame was used to induce skin barrier damage to left and right back regions of 6-8 week aged nude mice. Here, all the experimental groups were maintained to have no difference in trans epidermal water loss (TEWL) through measurement of the trans epidermal water loss (TEWL), and then vehicle (PEG:EtOH=7:3) and the new material represented in the example were coated thereon. The trans epidermal water loss (TEWL) was measured at the time of 0 h, 3 h, 6 h, and 24 h to confirm recovery of the skin barrier, and skin biopsies were conducted at the respective time, to thereby implement histological examination and other examinations.

In the case of `CCCCCC(=O)N[C@@H](Cc1ccc(O)cc1)C(=O)OC` [Chemical Formula (Ia), (S)-Methyl 2-(hexanamido)-3-(4-hydroxyphenyl)propanoate], the “expression of antimicrobial peptides in the skin” value (CRAMP) was “increased”, the “secretion of LL-37” value (LL-37) was “promotes secretion” and the melting point was 96 °C. For the same compound, the skin barrier function (nude mice [1]; animal model with atopic dermatitis, topical application) was “improved”, the anti-inflammatory efficacy (nude mice [1]; oxazolone atopic dermatitis nude mice, 0.1% in PEG:EtOH=7:3, coated twice daily for four days, skin thickness, FIG. 3) was “improved” and the “secretion of β-defensin-2” value [2] was “promotes secretion”. The skin barrier recovery (nude mice [3]) was “significantly promoted”.
